The values below come from patent US20160237158A1, “Methods and Compositions for Targeting Tumor Microenvironment and for preventing Metastasis” (INSTITUT NATIONAL DE LA SANTÉ ET DA LA RECHERCHE MÉDICALE …, priority 2013, published 2016).

Each structure is given as a SMILES string.

Experiment [1] deals with STAT3. The experiment in a line: STAT3 phosphorylation in fibroblasts (western blot). Type of experiment: cell-based, human. The text has this:
For western blot analysis, antibodies against STAT3 (#9134), pY705-STAT3 (#9145), SMAD2 (#3122), pSer465/467-SMAD2 (#3108), pY1022/1023-JAK1 (#3331), MLC2 (#3672), pThr18/19-MLC2 (#3674) were purchased from Cell Signaling (Cell Signaling Technology, Beverly Mass.), α-tubulin from sigma (T4026, Sigma, Saint Louis, Mo.); JAK1 from Biolegend (#604402, Biolegend, San Diego, Calif.), GP-130 (#sc-655) and RhoA (#sc-418, Santa Cruz Biotechnology, Santa Cruz, Calif.), and alpha-smooth muscle actin (α-SMA) from Abcam (#Ab5694, Abcam, Cambridge, Mass.). For immunofluorescence staining, antibodies against α-SMA and fibronectin were purchased from Sigma (#A2547 and F3648 respectively, Sigma, Saint Louis, Mo.). Chemical inhibitors used: Pyridone 6 (#42009, Calbiochem, Los Angeles, Calif.) was used at […], SB431542 (#1614, Tocris bioscience, Ellisville, Mo.) at 10 μM, Y27632 (#1254, Tocris bioscience, Ellisville, Mo.) and Actinomycin D (#856258, Sigma, Saint Louis, USA) at 5 μg/ml.
(§1) For immunoblotting analysis, cells were lysed on ice in lysis buffer (25 mM Tris (pH 6.8), 2% Sodium dodecyl sulfate (SDS), 5% glycerol, 1% beta-mercaptoethanol, 0.01% bromophenol blue). Equal amounts of protein from each sample were loaded on sodium dodecyl sulfate-polyacrylamide gel electrophoresis, separated, and transferred onto nitrocellulose. The immunoblots were blocked by incubation in 5% bovine serum albumin, 10 mM Tris-HCl (ph7.5), 500 mM NaCl, 0.1% Tween 20 for 30 min at room temperature, probed with specific antibodies and then with secondary antibodies using common classical methods. Immunodetection was performed using chemiluminescent HRP subtrate (#WBKLS0500, Millipore, Billerica, Mass.).
For orientation: Immunoblotting shows a protein as a band on a membrane.

The test system of experiment [2] is mouse dermal fibroblasts. The experiment in a line: TGFβ1-stimulated mouse dermal fibroblasts: STAT3 phosphorylation and collagen gel contraction. Type of experiment: cell-based. The protocol: 2.5×10^4 Fibroblasts were embedded in 100 μl of matrix gel (the Collagen-Matrigel mixture used for organotypic invasion assays) and plated into wells of a 96 well plate^57. After 1 h at 37° C., the matrices were overlaid with 100 μl serum-free medium (with either vehicle, cytokines or inhibitors) or CM. Every 2 days, medium was changed and at day 6 the gels were photographed and the respective diameters of the well and gel were measured using ImageJ. The percentage contraction was calculated using the formula 100*(well diameter−gel diameter)/well diameter.
as §1

For experiment [3], the system named is 410.4 cells. The experiment is described as follows: Orthotopic tumours in BALB/c mice. Type of experiment: in vivo, mouse. The conditions noted are these: 21-day oral gavage, 30 mg/kg/day. The protocol:
After embedding in paraffin, tissue sections from organotypic culture, skin from human breast and foreskin, and human skin carcinomas were prepared on slides using standard methods. Collagen assembly was evaluated by Sirius Red staining. Briefly, sections were first incubated with Weigert's iron hematoxylin (#C0231, Diapath, Martinengo, Italy) for 8 minutes and washed in distilled water for 10 minutes. Sections were next incubated with 1% Sirius Red in saturated picric acid for 1 hour. The slides were then washed twice with 0.5% acetic acid in distilled H2O, dehydrated and mounted using classical procedures. Sections were analysed using polarized light imaging and confocal laser microscopy with a LSM 5 EXCITER confocal microscope (Carl Zeiss, Germany). Collagen fibres thickness and length were quantified using ImageJ software.
6-8 weeks old female BALB/c mice were anesthetized using ketamine and xelazine by peritoneal injection. Skin was incised and 5.10^3 67NR or 410.4 cells (5.10^3) were injected into the right and left 4th mammary fat pad in 10 μl of PBS for each mouse. 67NR group consisted of 2 mice (4 primary tumours), 410.^4 group consisted of 7 mice (14 tumours) and 410.4 with additional treatment of Ruxolitinib (30 mg/kg/day) group consisted of 5 mice (10 tumours). Mice were sacrificed 30 days post-injection and Ruxolitinib treatment started 7 days after injection, primary tumours were removed and fixed in PBS containing 3.7% formalin for 8 hours, followed by was with PBS and transfer to 70% ethanol, and then embedded in paraffin, sectioned and stained with haematoxylin and eosin. Immunohistochemistry detection using anti-LIF, anti-p-STAT3 and anti-alpha-SMA antibodies was performed on paraffin sections following manufactures instructions.

Where [4] appears, read: mice implanted with 401.4 cells.

Turning to `N#CCC(C1CCCC1)n1cc(-c2ncnc3[nH]ccc23)cn1` (stereo not drawn) [Ruxolitinib, 3-Cyclopentyl-3-[4-(7H-pyrrolo[2,3-d]pyrimidin-4-yl)-1H-pyrazol-1-yl]propanenitrile], the STAT3 phosphorylation entry in experiment [1] (TGFβ1- or LIF-stimulated fibroblasts) is “repressing”. In addition, the “CAF endogenous STAT3 activity” value in experiment [1] (hCAF) was “inhibition”. Moreover, in experiment [2], the STAT3 phosphorylation result was “complete abrogation” and the matrix remodelling result was “complete abrogation”. Also, in experiment [3] (setting [4]), the “STAT3 phosphorylation within the tumour microenvironment in vivo” value was “inhibited” and the αSMA staining result is “without influencing”. Further, the “rates of invasion of the tumour cells” value in experiment [3] (mice implanted with 401.4 cells, FIG. 4B) was “significant reduced”. In addition, the “Sirius Red staining and formation of collagen bundles” value in experiment [3] (mice implanted with 401.4 cells, FIG. 4C) is listed as “reduced”. The LIF production result in experiment [3] (mice implanted with 410.4 cells) was “without influencing”.
